Assay results reported in patent US7445891B2, “Nucleic acid triggered catalytic drug and probe release” (priority 2001, dated 2008).

Legend:
[1] = Hydrolysis of esters in human serum
Description: In a typical run, 3 mL of coumarin ester solution (7 mM in acetonitrile) was added to 400 mL of Human serum, pH 8.3 (Innovative Research Inc.) in cuvette. The cuvette was capped, inverted several times for thorough mixing, placed in a cell block and recording was begun.

[2] = tested on: hairpin enzyme 3a; experiment: Two component hairpin system: p-nitrophenolate / 7-hydroxycoumarin release from 8-mer prodrugs; assay type: biochemical; conditions: for Enhancement: (kcat/KM)/kIm
Description: Initial velocities of the reaction, obtained for each substrate concentration, were fitted to the Michaelis-Menten equation by a non-linear least squares method using KaleidaGraph software. The inhibition constant KI was determined in the presence of 25 mM 7d ([…]) in 10 mM sodium phosphate buffer pH 7.0 containing 1.0 M NaCl by the plotting 1/v vs. 1/[S] and calculating KI from the slope of the line according following equation:
(§1) [formula] where v is the velocity of the reaction, Vmax is the maximum velocity, KM is the substrate concentration at half maximal reaction rate, [I] is the inhibitor concentration, and [S] is the substrate concentration. Kinetics of p-nitrophenol and 7-hydroxycoumarin Release by Imidazole Alone

[3] = tested on: 15-mer catalytic component 3b and 23-mer template 4; experiment: Three component system: release from 8-mer prodrug with imidazole 15-mer and triggering 23-mer; assay type: biochemical
Description: For typical assays, pNP-8-mer 1 (SEQ ID NO:1) and Im-15-mer 2 were incubated in 10 mM sodium phosphate, pH 7.0, which contained 0.1 M or 1.0 M NaCl in an ultra-micro ([…]) UV cell (Varian). The reaction temperature was maintained at 20° C., and the production of p-nitrophenolate was monitored by UV absorbance at 400 nm (e400=6.26′10^3). Initial velocities of the reaction, obtained for each substrate concentration, were fitted to the Michaelis-Menten equation by a non-linear least squares method with KaleidaGraph software. The inhibition constant KI was determined in the presence of 20 mM d([…]) in 10 mM sodium phosphate buffer pH 7.0 containing 1.0 M NaCl by the plotting 1/v vs. 1/[S] and calculating KI from the slope of the line according following equation:
[formula] where v is the velocity of the reaction, Vmax is the maximum velocity, KM is the substrate concentration at half maximal reaction rate, [I] is the inhibitor concentration, and [S] is the substrate concentration. For comparison purposes, the reaction rate constant kIm for the imidazole catalyzed hydrolysis of N-maleoyl-D-valine p-nitrophenyl ester 8 was determined in imidazole buffer at pH 7.0, 1.0 M NaCl at 20° C. as previously described. […]
as §1

[4] = 1 M NaCl; cited from earlier work
[5] = tested on: imidazole hairpin 3a; experiment: Fluorescein release from fluorescein dipivalate ODNs by imidazole hairpin; assay type: biochemical; conditions: 10 mM ODN, 5 mM hairpin 3a, 0.1 M phosphate pH 7.0, 20° C.; relative to 7a
Source text: FIG. 11. […] For comparison, the release of fluorescein from the fluorescein tetramer 7aby imidazole at 0.1 M imidazole alone is also shown.
Because of the strong fluorescence and widespread use of fluorescein as a fluorescent probe, the rate of fluorescein release by imidazole catalyzed hydrolysis of diacetyl fluorescein was investigated. Diacetylated fluoresceins are non-fluorescent, but upon hydrolysis of the acyl groups become highly fluorescent. Attempts to attach the N-hydroxysuccinimide derivative of diacetylcarboxyfluorescein via amide bond formation with the 3′-amino linked oligodeoxynucleotide 5 (FIG. 4) failed due to the high pH required for the reaction which led to the premature hydrolysis of the acetate groups. Attempts to conjugate 5-chloromethyl fluorescein diacetate with a 3′-phosphorothioate labeled ODN also failed at pH 7. […] The TMs of 7a-cwere estimated from thermodynamic parameters to be -20, 19, and 41° C. under the conditions of the experiment and have equilibrium dissociation constants of 3.4 mM, 8.1 mM, and 14 nM.

[6] = Imidazole catalyzed hydrolysis of esters (imidazole alone); assay type: physicochemical; conditions: 20° C.
Description: For comparison purposes, the rate constant kIm for the imidazole catalyzed hydrolysis of the various esters were determined in imidazole buffer at pH 7.0, 0.5 M NaCl at 20° C. as previously described. The imidazole buffers were prepared in 0.5 M NaCl, and adjusted to pH 7 by addition of 1 M HCl. […] The pseudo first-order rate constant for each concentration of imidazole was obtained by linear least squares fitting of In(A¥-A) or In(F¥-F) vs. time. The rate constants were then plotted against total imidazole concentration to get ko, the first order rate constant for the uncatalyzed hydrolysis reaction, and kIm, the second-order rate constant for catalysis by imidazole buffer.

[7] = tested on: E. coil 5S rRNA; experiment: Hydroxycoumarin release from PNA constructs on 5S rRNA trigger; assay type: biochemical, E. coli; conditions: unoptimized test
Source text: FIG. 16. A series of PNA constructs was synthesized to target one of the hairpin loops of commercially available E. coil 5S rRNA (SEQ ID NO:11) as the nucleic acid trigger. This rRNA has been thoroughly characterized by enzymatic and chemical probes, and is therefore a suitable initial model for studying and optimizing various catalytic drug releasing motifs in folded […].
FIG. 19. […] In contrast, there was no difference in the rate of release of hydroxycoumarin from the 6-mer conjugate in the presence or absence of the histidine, or the catalytic component. (not shown).

## N-maleoyl-b-alanine-coumarin ester [9c]
[1]
  stability to hydrolysis by human serum, compared: more stable than the CBZ-glycine ester, but much less stable than the maleoyl-D-valine esters

## 16a: D-valine p-nitrophenyl ester linked to the 3'-end of 8-mer ODN d(TCCTGTCA) (DNA, backbone not given here; further chemistry not fully specified)
[2]; 1.0 M NaCl
  drop in kcat relative to b-alanine ester 15a: 8.3 fold
  Enhancement: 429
[3]; 5 mM catalytic ODN and 5 mM triggering ODN
  p-nitrophenol formed during the course of the reaction: about 15 mM
[3]; 0.1 M NaCl, 20° C.
  release more efficient with fully matched than mismatched template: 7.5 fold
[3]; 1 M NaCl
  difference in rate, matched vs mismatched template: 1.4 fold
[3]; 1 M NaCl, pH 7, 20° C.
  Vmax: 0.09 mM/min
  kcat: 0.0003 s⁻¹
[3]; 15-mer lacking an appended imidazole group, 1 M NaCl, pH 7, 20° C.
  initial rate of p-nitrophenol release: 0.0008 mM/min
[3]; (kcat/KM)/kIm
  rate acceleration over hydrolysis catalyzed by free imidazole: 976 fold
[3]; (kcat/KM)/kIm, 1.0 M NaCl
  Enhancement: 974
[3]; absence of the 23-mer or Im-15-mer, 1 M NaCl, pH 7, 20° C.
  initial rate of p-nitrophenol release: 0.002 mM/min
[3]; all three components, 1 M NaCl, pH 7, 20° C.
  initial rate of p-nitrophenol release: 0.057 mM/min
[3]; fully matched 23-mer, 0.1 M NaCl, 20° C.
  initial rate of release of p-nitrophenol: 0.028 mM/min
[3]; mismatched 23-mer (T at position 20 replaced with C), 0.1 M NaCl, 20° C.
  initial rate of release of p-nitrophenol: 0.0037 mM/min

## d(GGAGCTTGCTCC): hairpin ODN of the literature (SEQ ID NO:18) (DNA, backbone not given here; hairpin)
[4]
  TM reported: 71 °C

## 7a: 4-mer ODN derivatized with bis-pivaloyl fluorescein (SEQ ID NO:7) (GTCA; DNA, backbone not given here; further chemistry not fully specified)
[5]
  relative initial rates of fluorescein release: 1

## CC(=O)Oc1ccc([N+](=O)[O-])cc1 [p-nitrophenylacetate, reference compound]
[6]; imidazole catalyzed rate constant, pH 7, 0.5 M NaCl
  klm: 0.13 M⁻¹ s⁻¹

## 15a (X = G): matched b-alanine p-nitrophenyl ester 8-mer ODN prodrug (SEQ ID NO:10) (TCCTNTCA; beta-alanine p-nitrophenyl ester prodrug, chemistry not fully specified)
[2]; 20 mM prodrug, 5 mM hairpin 3a, 1 M NaCl, pH 7, 20° C.
  time in which four turnovers are complete: about 4 h
[2]; 1.0 M NaCl, 10 mM phosphate buffer pH 7.0, 20° C., listed as 15a
  kcat: 0.0029 s⁻¹
[2]; 0.1 M NaCl
  Enhancement: 281
[2]; 1.0 M NaCl
  Enhancement: 446
[2]; assuming on rate 10^6 M^−1s^−1
  koff needed to account for observed KM: 50 s⁻¹
[2]; kcat/KM compared with kIm
  rate enhancement of ester hydrolysis relative to imidazole alone: 446 fold

## CC(C)[C@H](C(=O)Oc1ccc([N+](=O)[O-])cc1)N1C(=O)C=CC1=O [11a, N-maleoyl-D-valine p-nitrophenyl ester]
[6]; imidazole buffer pH 7.0, 1.0 M NaCl
  kIm: 0.014 M⁻¹ s⁻¹

## 8-mer PNA construct: hydroxycoumarin-bearing 8-mer PNA (SEQ ID NO:15) targeting E. coli 5S rRNA hairpin loop (CTGGGGTA; all peptide nucleic acid (PNA); hydroxycoumarin attached, position not given here)
[7]
  rate of hydroxycoumarin release, all three components vs absence of the entire catalytic PNA: 4 fold
  rate of hydroxycoumarin release, all three components vs all three minus the histidine: 2 fold

## 7c: 8-mer ODN derivatized with bis-pivaloyl fluorescein (SEQ ID NO:9) (TCCTGTCA; DNA, backbone not given here; further chemistry not fully specified)
[5]
  relative initial rates of fluorescein release: 493

## 15a (SEQ ID NO:10) (X=C): mismatched b-alanine p-nitrophenyl ester 8-mer prodrug, G to C transversion (DNA TCCTNTCA; b-alanine p-nitrophenyl ester prodrug, chemistry not fully specified)
[2]; 1 M NaCl
  difference in initial rates of p-nitrophenolate release, matched 15a (X=G) vs single CC mismatch: 11 fold
[2]; rates proportional to (Kd+[S])^−1
  increase in Kd of mismatch substrate needed to account for rate difference: 15 fold
